Reference: patent US11040981B2, “Pyrrolotriazine compounds and methods of inhibiting TAM kinases” (Syros Pharmaceuticals, Inc., priority 2017, dated 2021)

Assays:
[1] = biological target: T1, MERTK (Homo sapiens, UniProt Q12866); test: TR-FRET kinase activity assay, MERTK; format: biochemical
T1 sequence (Q12866 21-999): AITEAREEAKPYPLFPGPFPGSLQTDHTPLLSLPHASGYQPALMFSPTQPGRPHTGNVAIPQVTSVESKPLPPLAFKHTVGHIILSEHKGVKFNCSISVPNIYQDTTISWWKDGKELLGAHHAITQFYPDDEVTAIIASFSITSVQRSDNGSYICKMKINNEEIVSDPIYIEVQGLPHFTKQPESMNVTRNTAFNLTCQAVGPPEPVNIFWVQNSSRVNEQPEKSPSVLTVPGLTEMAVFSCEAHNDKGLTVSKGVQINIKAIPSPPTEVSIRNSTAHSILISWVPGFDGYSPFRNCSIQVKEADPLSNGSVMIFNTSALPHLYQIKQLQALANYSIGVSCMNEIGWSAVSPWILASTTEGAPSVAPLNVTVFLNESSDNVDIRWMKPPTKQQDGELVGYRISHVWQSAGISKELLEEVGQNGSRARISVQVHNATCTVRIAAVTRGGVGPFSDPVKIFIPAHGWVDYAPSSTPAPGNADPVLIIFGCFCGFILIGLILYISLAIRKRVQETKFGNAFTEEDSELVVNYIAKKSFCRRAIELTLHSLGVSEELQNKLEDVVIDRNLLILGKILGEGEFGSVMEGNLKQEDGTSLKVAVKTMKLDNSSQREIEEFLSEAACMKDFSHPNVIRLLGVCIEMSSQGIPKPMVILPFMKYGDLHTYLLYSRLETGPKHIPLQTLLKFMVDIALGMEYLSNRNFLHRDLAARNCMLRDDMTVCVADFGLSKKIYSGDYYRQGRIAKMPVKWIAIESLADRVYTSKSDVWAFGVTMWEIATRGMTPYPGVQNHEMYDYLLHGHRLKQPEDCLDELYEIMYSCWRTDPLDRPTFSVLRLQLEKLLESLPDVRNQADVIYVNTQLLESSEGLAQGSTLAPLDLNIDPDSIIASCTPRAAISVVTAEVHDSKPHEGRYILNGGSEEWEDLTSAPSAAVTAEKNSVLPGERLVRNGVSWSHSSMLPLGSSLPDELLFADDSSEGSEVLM
Procedure, shortened: (§1)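 Each kinase phosphorylated a fluorescent-labelled tyrosine peptide in 50 mM HEPES pH 7.5, 10 mM MgCl2, 1 mM EGTA, 0.01% Brij 35, 1 mM DTT at RT, with ATP at Km for that enzyme. After 60 min, EDTA quench and Eu-anti-phosphotyrosine antibody (30 min, dark); IC50 from TR-FRET decrease.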

[2] = biological target: T2, TYRO3 (Homo sapiens, UniProt Q06418); test: TR-FRET kinase activity assay, TYRO3; format: biochemical; conditions: ATP at Km, 60 minutes
T2 sequence (Q06418 41-890): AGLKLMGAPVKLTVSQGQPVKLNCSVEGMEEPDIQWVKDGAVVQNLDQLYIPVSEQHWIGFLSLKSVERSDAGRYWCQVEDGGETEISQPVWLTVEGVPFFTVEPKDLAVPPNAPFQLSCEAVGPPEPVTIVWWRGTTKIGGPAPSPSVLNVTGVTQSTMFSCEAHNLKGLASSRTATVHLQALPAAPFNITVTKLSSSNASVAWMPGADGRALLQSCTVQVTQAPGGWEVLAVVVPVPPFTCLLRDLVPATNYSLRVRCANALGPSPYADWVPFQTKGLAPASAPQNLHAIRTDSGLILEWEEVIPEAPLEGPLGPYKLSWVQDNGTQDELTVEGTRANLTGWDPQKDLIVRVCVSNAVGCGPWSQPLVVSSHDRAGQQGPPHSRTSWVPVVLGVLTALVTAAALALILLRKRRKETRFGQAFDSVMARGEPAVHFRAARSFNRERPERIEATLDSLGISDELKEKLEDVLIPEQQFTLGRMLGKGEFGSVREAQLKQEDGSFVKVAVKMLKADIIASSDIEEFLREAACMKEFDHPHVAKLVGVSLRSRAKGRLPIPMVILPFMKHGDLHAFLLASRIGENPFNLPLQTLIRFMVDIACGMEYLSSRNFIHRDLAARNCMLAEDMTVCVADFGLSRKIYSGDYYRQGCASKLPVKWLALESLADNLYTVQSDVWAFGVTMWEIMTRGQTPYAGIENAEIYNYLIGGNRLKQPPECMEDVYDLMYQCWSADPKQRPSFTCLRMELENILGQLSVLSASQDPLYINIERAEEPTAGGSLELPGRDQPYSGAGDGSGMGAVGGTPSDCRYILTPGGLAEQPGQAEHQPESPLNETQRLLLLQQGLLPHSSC
Procedure, shortened: as §1

IC50 ([1]; TR-FRET activity assay, ATP at Km, 60 minutes, read-out: Mer IC50): ≤ 100 nM | IC50 [2]: ≤ 100 nM
Structure (SMILES): C[C@@H](CC(F)(F)F)Nc1ncc2c(-c3cnn(C(C)(C)C(=O)C4COC4)c3)cc([C@H]3CC[C@@](C)(O)CC3)n2n1 [Compound 609]
FLT3/Mer ratio (FLT3 IC50/Mer IC50) ([1]; ratio calculated as FLT3 IC50/Mer IC50): ++ (“++” represents a ratio of between 10 and 100)
